Source: patent US20190352341A1, “MODIFIED PEPTIDES AND THEIR USE FOR TREATING SYSTEMIC LUPUS ERYTHEMATOSUS” (IMMUPHARMA FRANCE SA, priority 2018, published 2019)
Square brackets hold non-standard residues; d marks the D form. Peptide text beside a SMILES is read from it. Met(O) = CS(=O)CC[C@H](N)C(=O)O; pS = N[C@@H](COP(=O)(O)O)C(=O)O

Columns and labels:
[1] = Stability of the peptides at 37° C. (HPLC peak area); format: physicochemical; settings: for 95% of stability (predicted): time to 95% from linear equation; for Stability (%) Linear equation: slope: y = stability %, x = days; for Stability (%): 10% mannitol
Procedure: The stability of the peptide SEQ ID NO: 1 in which the serine at position 10 is phosphorylated and the methionine at position 4 is oxydized (P140(MO)), and the peptide SEQ ID NO: 1 in which the serine at position 10 is phosphorylated (P140) was measured at 37° C., in a solution of 10% (v/v) mannitol. For each peptide, 3 concentrations have been tested: 200, 100 and 50 μg/mL.
At the indicated time, the integrity of P140 and P140(MO) peptides was measured in saline by high-performance liquid chromatography from the area of the peak corresponding to the intact peptide.
Stability is measured by using the HPLC peak surface.

MRL/lpr mice [2] = assay: Proteinuria analysis in MRL/lpr mice; format: in vivo, mouse; settings: Albustix score, compared to the untreated mice
Procedure: Proteinuria of the above mice was measured in fresh urine using Albustix (Bayer Diagnostics) and was semi-quantitatively estimated according to a […] recommended by the manufacturer (no proteinuria=0; traces=1; 1+=2; 2+=3; 3+=4; 4+=5).
(§1) Statistical tests were performed using GraphPad Prism version 5.0. The two-way ANOVA test was used to analyze statistical significance of proteinuria differences between control and peptide-treated groups of mice. Survival of control and P140 analogue-treated female MRL/lpr mice was analyzed by the Kaplan-Meier method, and the significance of differences was determined by the log-rank test. For the other variables, statistical significance was assessed using the Student's t-test. p values less than 0.05 were considered significant.

MRL/lpr mice [3] = assay: Cellularity analysis (peripheral blood) in MRL/lpr mice; format: in vivo, mouse; settings: 100 μg/100 μL, 5 days after unique injection
Procedure: MRL/lpr mice were injected with 100 μg/100 μL of P140 or P140(MO) and cellularity (peripheral blood) was studied 5 days after this unique injection. The count includes all the leucocytes. In view of the low number of tested mice, a non parametric statistical test has been realised Mann-Whitney).

HSC70 protein = molecular target: T1, HSC70 protein (Bos taurus, UniProt P19120); assay: Affinity of the peptides for HSC70 protein (BIAcore); format: binding, bovine
T1 construct: purchased Stressgen
T1 sequence (P19120 whole entry): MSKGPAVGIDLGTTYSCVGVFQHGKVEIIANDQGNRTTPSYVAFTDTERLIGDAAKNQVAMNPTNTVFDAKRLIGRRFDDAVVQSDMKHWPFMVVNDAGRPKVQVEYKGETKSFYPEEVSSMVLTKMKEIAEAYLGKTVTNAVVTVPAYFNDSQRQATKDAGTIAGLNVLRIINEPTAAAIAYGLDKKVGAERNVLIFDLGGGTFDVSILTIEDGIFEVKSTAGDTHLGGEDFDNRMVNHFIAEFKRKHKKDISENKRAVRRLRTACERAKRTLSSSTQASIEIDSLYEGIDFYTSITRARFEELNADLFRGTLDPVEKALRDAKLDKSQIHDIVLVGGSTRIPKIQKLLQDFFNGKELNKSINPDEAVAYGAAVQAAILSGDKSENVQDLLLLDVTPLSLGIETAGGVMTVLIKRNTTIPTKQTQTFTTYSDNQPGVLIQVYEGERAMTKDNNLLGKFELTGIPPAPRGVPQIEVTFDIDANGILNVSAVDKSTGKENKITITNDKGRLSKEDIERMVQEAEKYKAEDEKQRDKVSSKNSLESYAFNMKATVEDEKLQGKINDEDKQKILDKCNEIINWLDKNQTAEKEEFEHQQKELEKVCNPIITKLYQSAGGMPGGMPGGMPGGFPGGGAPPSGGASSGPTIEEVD
Procedure: BIAcore 3000 system (Biacore AB) was used to evaluate the binding of P140 peptides to HSC70 protein (Page et al., 2009, and 2011). Sensor chip CMS, surfactant P20, amine coupling kit containing N-hydroxysuccinimide (NHS) and N-ethyl-N′-dimethylaminopropyl carbodiimide (EDC), 2-(2-pyridinyldithio)ethaneamine (PDEA) and ethanolamine were from Biacore AB. Biosensor assays were performed with HBS-EP buffer as running buffer (10 mM HEPES, 150 mM NaCl, 3 mM EDTA, 0.005% surfactant P20, pH 7.4). The compounds were diluted in the running buffer. The sensor chip surface was regenerated after each experiment by injecting 10 μL of 10 mM HCl. Recombinant bovine HSC70 (Stressgen) was immobilized on flow cells of a CM5 sensor chip through its thiol groups using 35 μL PDEA in 50 mM borate buffer, pH 8.3 on the NHS/EDC-activated matrix. Then, 35 μL of HSC70 (100 μg/mL in formate buffer, pH 4.3) were injected until a response of 13,000 response units (RU) corresponding to 13 ng/mm^2 of HSC70 was immobilized. Twenty μL of a 50 mM cysteine/1 M NaCl solution was used to saturate unoccupied sites on the chip. The direct binding measurement of P140 peptides to HSC70 was carried out at 25° C. with a constant flow rate of 20 μL/min. P140 peptide and analogues were injected in the flux at different concentrations for 3 min, followed by a dissociation phase of 3 min. The kinetic parameters were calculated using the BIAeval 3.1 software on a personal computer. Analysis was performed using the simple 1:1 Langmuir binding model. The specific binding profiles were obtained after subtracting the response signal from the control empty channel and from blank-buffer injection. The fitting to each model was judged by the χ^2 value and randomness of residue distribution compared to the theoretical model.

MRL/lpr mice [4] = assay: Survival analysis in MRL/lpr mice; format: in vivo, mouse; settings: female MRL/lpr mice, peptide intravenously from five weeks of age; NaCl control 25 weeks
Procedure: It has been determined that this mouse strain carries a mutation in the fas gene. Also, the MRL/lpr is a useful model to study behavioural and cognitive deficits found in autoimmune diseases and the efficacy of immunosuppressive agents [Monneaux et al., 2003, Eur. J. Immunol. 33, 287-296].
Five-week-old female MRL/lpr mice received P140 or peptide P140(MO) intravenously as described (Monneaux et al., 2003, Eur. J. Immunol. 33, 287-296). All experimental protocols were carried out with the approval of the local Institutional Animal Care and Use Committee (CREMEAS). As control, mice were injected with NaCl.
Twenty mice were used for each peptide or NaCl.
as §1

[5] = BIAcore, 25° C., 1:1 Langmuir model, global fit

## CC[C@H](C)[C@H](NC(=O)[C@H](Cc1ccccc1)NC(=O)[C@H](C)NC(=O)[C@H](Cc1ccc(O)cc1)NC(=O)CNC(=O)[C@H](CCCNC(=N)N)NC(=O)[C@@H]1CCCN1C(=O)[C@H](CCCCN)NC(=O)CNC(=O)[C@H](COP(=O)(O)O)NC(=O)[C@H](CCCNC(=N)N)NC(=O)[C@H](CCCCN)NC(=O)[C@H](CO)NC(=O)[C@H](Cc1ccc(O)cc1)NC(=O)[C@@H](NC(=O)[C@H](CC[S+](C)[O-])NC(=O)[C@H](Cc1c[nH]cn1)NC(=O)[C@@H](NC(=O)[C@@H](N)CCCNC(=N)N)[C@@H](C)CC)C(C)C)C(=O)N[C@@H](CCC(=O)O)C(=O)N[C@@H](Cc1ccc(O)cc1)C(=O)O (stereo partly shown) [P140(MO), RIHM(O)VYSKRS(PO3H2)GKPRGYAFIEY] (H-RIH[Met(O)]VYSKR[pS]GKPRGYAFIEY-OH)
[1]; 50 μg/mL
  Stability (%) Linear equation: intercept: 99.677
  95% of stability (predicted): 2 years
  Stability (%) Linear equation: slope: y = −0.0064x +
[1]; 100 μg/mL
  Stability (%) Linear equation: intercept: 100.11
  95% of stability (predicted): 2 years +
  Stability (%) Linear equation: slope: y = −0.0064x +
[1]; 200 μg/mL
  95% of stability (predicted): ∞
[1]; 50 μg/mL, day 0
  Stability (%): 100%
[1]; 50 μg/mL, day 20
  Stability (%): 100%
[1]; 50 μg/mL, day 40
  Stability (%): 100%
[1]; 50 μg/mL, day 100
  Stability (%): 99.4%
[1]; 100 μg/mL, day 0
  Stability (%): 100%
[1]; 100 μg/mL, day 20
  Stability (%): 99.1%
[1]; 100 μg/mL, day 40
  Stability (%): 99.5%
[1]; 100 μg/mL, day 100
  Stability (%): 99.1%
[1]; 200 μg/mL, day 0
  Stability (%): 100%
[1]; 200 μg/mL, day 20
  Stability (%): 100%
[1]; 200 μg/mL, day 40
  Stability (%): 100%
[1]; 200 μg/mL, day 100
  Stability (%): 100%
MRL/lpr mice [2]
  Proteinuria: less important and appears lately
MRL/lpr mice [3]
  Peripheral hypercellularity (leucocytes in peripheral blood): decrease peripheral hypercellularity
HSC70 protein; BIAcore, 25° C., 1:1 Langmuir model
  Rmax: 39 RU
HSC70 protein; [5]
  KA: 524000 M⁻¹
  kd: 0.0022 s⁻¹
HSC70 protein; peptide 1.56 μM
  RI: 14 RU
  Req: 17.6 RU
  kobs: 0.004 s⁻¹
HSC70 protein; peptide 3.12 μM
  RI: 18.7 RU
  Req: 242 RU
  kobs: 0.0058 s⁻¹
HSC70 protein; peptide 6.25 μM
  RI: 25.9 RU
  Req: 29.9 RU
  kobs: 0.0094 s⁻¹
HSC70 protein; peptide 12.5 μM
  RI: 36.9 RU
  Req: 33.9 RU
  kobs: 0.0166 s⁻¹
HSC70 protein; peptide 25 μM
  RI: 53.4 RU
  Req: 36.3 RU
  kobs: 0.031 s⁻¹
MRL/lpr mice [4]
  Median survival of mice: > 40 weeks
